Results reported in patent publication US10870102B2, “Radical generating catalyst, method for producing radical, method for producing oxidation reaction product, drug, and drug for agriculture and livestock” (ACENET INC., priority 2015, dated 2020).
Values joined by “and” are separate entries in the source; they are usually repeats but may differ in a detail not shown here. Equal entries are not always repeated. Where two headings read alike, the source gives them in different places.

How the values were obtained:
Escherichia coli MV1184 = assay: MIC/MBC determination, microplate; format: cell-based; conditions: E. coli; 37° C., 24 hours
[1] = Lewis acidity: rate constant of reaction between CoTPP and oxygen in the presence of a Lewis acid; format: physicochemical
Staphylococcus aureus = assay: MIC/MBC determination, microplate; format: cell-based; conditions: S. aureus; 37° C., 24 hours

sodium chlorite [Comp. Ex. 7]
MIC (Escherichia coli MV1184): 25< ppm

CCCC[N+](CCCC)(CCCC)CCCC.F[P-](F)(F)(F)(F)F [tetrabutylammonium hexafluorophosphate]
kcat [1]: >0.1 M^−2 s^−1

CC(C)(C)CC(C)(C)c1ccc(OCCOCC[N+](C)(C)Cc2ccccc2)cc1.[Cl-] [benzetonium chloride, benzethonium chloride]
kcat [1]: 0.24 and 0.24 M^−2 s^−1

sodium chlorite [compound 6]
MIC (Staphylococcus aureus): 40 ppm
MBC (Escherichia coli MV1184): 50 ppm
MIC (Escherichia coli MV1184): 30 ppm

benzalkonium chloride
kcat ([1]; rate constant of reaction between CoTPP and oxygen in the presence of a Lewis acid, MeCN, saturated O2, room temperature): 0.18 M^−2 s^−1
